The source of these data is US20250163062A1, “WNT PATHWAY INHIBITOR COMPOUNDS” (ADLAI NORTYE BIOPHARMA CO., LTD., priority 2022, published 2025).

Type in all cases: cell-based
Experiment [1] has as its system Colo205-LUC-TCF/LEF reporter gene. Kind of experiment: Colo205-LUC-TCF/LEF M1 reporter cell line luciferase inhibition. Particulars: 4 h, 4 hours incubation, firefly luciferase signal. As for the experimental part:
Colo205 cell line (Cell Bank of Chinese Academy of Sciences, Cat #TCHul02) was purchased from the Cell Bank of Chinese Academy of Sciences. After expansion and subculture, during the exponential growth phase, luciferase reporter plasmid (Promega) driven by TCF/LEF transcription factor was transfected by lipo3000 liposome transfection. The plasmid carries a resistance gene for resistance screening. Transfection was carried out in 10 cm culture dishes using conventional complete medium without resistance. After 2 days, the medium with resistance was replaced, and the culture was continued. After that, the medium with resistance was replaced every 2 days, and the suspended cells were discarded. The original medium was centrifuged to remove cells and debris and retained as an adaptive medium. When the cells covered the culture dish, the cells were digested, counted, and passaged in a 96-well plate, so that the average number of cells contained in each well was 1.5/well, and the adaptive medium was used for passage. The rest of the cells were frozen. After passage, culture for 4 hours to allow the cells to adhere to the wall, and then observe the number of cells in each well under a microscope. Wells with only 1 cell per well were labeled as monoclonal wells. Afterwards, normal culture was performed, and the culture medium was replaced every 2 days, and observed. There are wells where the monoclonal cells continue to grow in the early stage, and they are labeled twice, and can be replaced with normal medium with resistance. When a monoclonal well was overgrown with a 96-well plate, it is digested and passaged to a 24-well culture plate. After the 24-well plate is overgrown, it is passaged to a 96-well plate and a 6-well plate. The cells in a 96-well plate are at least 6 wells, of which 3 wells were added with known Wnt inhibitors, and the other 3 wells were not treated. After 24 hours, the cells in the 96-well plate were added with a fluorescence detection reagent to detect the fluorescence intensity. Cell lines with fluorescent expression when not treated and decreased fluorescent light after inhibition were selected and further cultured. The Colo205-LUC-TCF/LEF-M1 cell line is one of the cell lines screened above. Its growth curve, cell shape, and cell growth state are similar to those of the original Colo205 cells, and the ratio of the fluorescent signals of the inhibitor-treated and untreated cells is the largest among all cell lines, and the ratio can reach 4-5 times when inhibited at 4 hours, which was completely suitable for the screening of Wnt inhibitors in the later stage.
The Colo205-LUC-TCF/LEF M1 cell line is a reporter tool cell stably transfected with the pGL4.49-LUC2-TCF/LEF vector. The β-catenin Wnt pathway is continuously activated. After adding the inhibitor, the Wnt pathway is inhibited. The expression of firefly luciferase regulated by the TCF/LEF cis-element decreased, and after adding the detection substrate, the detected light signal decreased accordingly, so as to detect the inhibitory effect of the compound.
To a 96-well cell culture plate, add 100 uL of the compound with a maximum concentration of 20 uM to each well, and make a 3-fold serial dilution of the compound concentration. Then 10,000 colo205 cells stably transfected with the reporter gene and 100 uL medium were inoculated into each well, and corresponding positive and negative control wells were made at the same time. Put the cells in a 5% CO2 incubator and incubate at 37° C. for 4 hours. After 4 hours, remove the culture medium, add 100 μL of reagent (Promega) containing the corresponding firefly luciferase substrate to each well, and measure the activity of luciferase reporter gene. Luminescence intensity was read with SpectraMax in full wavelength mode. […]

The next experiment relates to HepG2. Kind of experiment: Proliferation inhibition test, Wnt mutant cell line HepG2. Particulars: Homo sapiens, HepG2, 96 h, HepG2, 96 h culture with compound; read-out: Antiproliferation IC50 HepG2. An excerpt: (§1) The cell lines used in the experiment are Colo205, H929, HepG2, and DU4475, which have sustained activation of the Wnt pathway and whose proliferation is Wnt pathway-dependent. On the other hand, RKO cell line, in which normally the Wnt pathway is not activated and whose proliferation is not Wnt pathway-dependent, was used as a control cell line. This was done to determine whether the inhibitory effect of the compound of the present disclosure on Wnt-dependent proliferation is due to other nonspecific toxicity.
(§2) Colo205, H929, DU4475, HepG2 and RKO cell lines cultured in their respective culture media were treated in the logarithmic growth phase, and the cells were collected and prepared into a uniform cell suspension of known concentration, and then added to a 96-well cell culture plate so that each well contained 1000-4000 cells. Place in a 5% CO2 cell culture incubator and culture at 37° C. for 20-24 h. On the second day, add the completely dissolved, 3-fold gradient dilution compound to each cell culture well to make the final maximum concentration in the cell culture well 10 uM, and continue to culture for 96 h. This test uses Promega's cell activity detection test for detection. The more the cells proliferate, the stronger the final signal intensity. The detection instrument is SpectraMax, full wavelength mode. The wells with only DMSO added were used as positive control wells, and the wells without cells inoculated were used as negative control wells.

For a further experiment, the system named is Colo205. Kind of experiment: Proliferation inhibition test, Wnt mutant cell line Colo205. The settings on record: Homo sapiens, COLO 205, 96 h, Colo205, 96 h culture with compound; read-out: Antiproliferation IC50 Colo205.
Source text: as §1, §2

In the next experiment the test system is DU4475. Kind of experiment: Proliferation inhibition test, Wnt mutant cell line DU4475. The settings on record: Homo sapiens, DU-4475, 96 h, DU4475, 96 h culture with compound; read-out: Antiproliferation IC50 DU4475.
Source text: as §1, §2

The next experiment concerns RKO. Kind of experiment: Proliferation inhibition test, non-Wnt mutant control cell line RKO. The settings on record: Homo sapiens; RKO (Wnt pathway not activated, control), 96 h culture, maximum concentration 10 uM; read-out: Antiproliferation IC50 RKO.
Source text: as §1, §2

Another experiment relates to H929. Kind of experiment: Proliferation inhibition test, Wnt mutant cell line H929. Particulars: Homo sapiens, NCI-H929, 96 h, H929, 96 h culture with compound; read-out: Antiproliferation IC50 H929.
Source text: as §1, §2

Take `Cc1nc(C(F)(F)F)ncc1Oc1ccc(CNc2nc3c4c(n2)N(C)[C@@H]([C@@H](C)O)C(=O)N4CCC3)cn1` [Compound 23]: the IC50 was 0.0647 µM in experiment [1]; 0.0375 µM in the experiment on HepG2; 0.0537 µM with Colo205; 0.016 µM in the experiment on DU4475; over 10 µM with RKO; 0.192 µM in the experiment with H929.

`[2H]C([2H])([2H])N1c2nc(NCc3ccc(Oc4cnc(C(F)(F)F)nc4C)nc3)nc3c2N(CCC3)C(=O)[C@@H]1[C@@H](C)O` [Compound 24]: the IC50 in experiment [1] is 0.048 µM; in the experiment with HepG2 it was 0.037 µM; in the experiment on Colo205, 0.0465 µM; with DU4475, 0.0232 µM; with RKO, over 10 µM; with H929, 0.00561 µM.

As for `Cc1nc(C(F)(F)F)ncc1Oc1ccc(CNc2nc3c4c(n2)N(C)[C@@H]([C@H](C)O)C(=O)N4CCC3)cn1` [Compound 25], the IC50 was 0.0694 µM in experiment [1]; 0.068 µM with HepG2; 0.0645 µM in the experiment with Colo205; 0.0159 µM in the experiment with DU4475; over 10 µM with RKO; 0.098 µM with H929.

Consider `CN1c2nc(NCc3ccc(Oc4ccc(C(F)(F)F)nc4F)nc3)nc3c2N(CCC3)C(=O)[C@@H]1CO` [Compound 26], for which the IC50 in experiment [1] was 0.0438 µM; in the experiment on HepG2, 0.0136 µM; in the experiment on Colo205, 0.0189 µM; in the experiment with DU4475, 0.0121 µM; in the experiment with RKO it was over 10 µM; in the experiment on H929 it was 0.0988 µM.

As to `[2H]C([2H])([2H])N1c2nc(NCc3ccc(Oc4ccc(C(F)(F)F)nc4F)nc3)nc3c2N(CCC3)C(=O)[C@@H]1CO` [Compound 27], the IC50 in experiment [1] was 0.0307 µM; with HepG2 it was 0.0383 µM; in the experiment with Colo205 it was 0.0228 µM; in the experiment with DU4475 it was 0.0246 µM; in the experiment with RKO it was over 10 µM; in the experiment on H929 it was 0.0902 µM.

As for `Cc1nc(C(F)(F)F)ncc1Oc1ncc(CNc2nc3c4c(n2)N(C)[C@@](C)(CO)C(=O)N4CCC3)cc1F` [Compound 28], the IC50 was 0.0274 µM in experiment [1]; 0.0613 µM in the experiment on HepG2; 0.0257 µM in the experiment on Colo205; 0.0168 µM with DU4475; over 10 µM with RKO; 0.126 µM with H929.
